Results reported in ChEMBL document CHEMBL2029253, “Pharmacophore modeling, virtual screening and 3D-QSAR studies of 5-tetrahydroquinolinylidine aminoguanidine derivatives as sodium hydrogen exchanger inhibitors” (Bioorg Med Chem Lett, 2012).

Assay: Inhibition of sodium hydrogen exchanger-mediated platelet swelling in human
Conditions: for IC50: Homo sapiens

SMILES	IC50 (read-out: pIC50 (converted))	IC50 (read-out: IC50)	Ki
Cc1ccnc2c1/C(=N/N=C(N)N)CC(c1ccsc1Cl)C2 (configuration not stated)	22 nM		
Cc1cc(C)c2c(n1)CC(c1ccccc1)C/C2=N\N=C(N)N (configuration not stated)	180 nM	< 50 nM	
COc1ccc(F)cc1C1C/C(=N\N=C(N)N)c2c(C)ccnc2C1 (configuration not stated)	32 nM		
Cc1ccnc2c1/C(=N/N=C(N)N)CC(c1ccco1)C2 (configuration not stated)	110 nM		
Cc1ccnc2c1/C(=N/N=C(N)N)CC(c1cc(Cl)sc1Cl)C2 (configuration not stated)	19 nM		
Cc1ncnc2c1/C(=N/N=C(N)N)CC(c1ccccc1Cl)C2 (configuration not stated)	240 nM		
Cc1ccnc2c1/C(=N/N=C(N)N)CC(c1cccs1)C2 (configuration not stated)	47 nM		
Cc1ccnc2c1/C(=N/N=C(N)N)CC(c1ccccc1Cl)C2 (configuration not stated)	40 nM	< 50 nM	
Cc1ccnc2c1/C(=N/N=C(N)N)CC(c1ccsc1)C2 (configuration not stated)	30 nM		
Cc1ccnc2c1/C(=N/N=C(N)N)CC(c1cccc(Cl)c1)C2 (configuration not stated)	61 nM	< 50 nM	
Cc1ccnc2c1/C(=N/N=C(N)N)CC(c1sc(Cl)cc1Cl)C2 (configuration not stated)	49 nM		
N=C(N)N/N=C1\CC(c2ccccc2)Cc2ncccc21 (configuration not stated)	410 nM	410 nM	
N=C(N)N/N=C1\CC(c2ccccc2)Cc2[nH]ccc21 (configuration not stated)	3500 nM		
Cc1ccnc2c1/C(=N/N=C(N)N)CC(c1cc(F)ccc1F)C2 (configuration not stated)	39 nM		
Cc1cccc2c1/C(=N/N=C(N)N)CC(c1ccccc1Cl)O2 (configuration not stated)	200 nM		
Cc1ccnc2c1/C(=N/N=C(N)N)CC(c1cccc(Cl)c1Cl)C2 (configuration not stated)	88.9 nM		
COc1ccnc2c1/C(=N/N=C(N)N)CC(c1ccccc1Cl)C2 (configuration not stated)	50 nM	< 50 nM	
COc1ccccc1C1C/C(=N\N=C(N)N)c2c(C)ccnc2C1 (configuration not stated)	100 nM	100 nM	
Cc1ccnc2c1/C(=N/N=C(N)N)CC(c1cc(Cl)ccc1Cl)C2 (configuration not stated)	57.9 nM		

SMILES	IC50 (read-out: pIC50 (converted))	IC50 (read-out: IC50)	Ki
Cc1coc2c1/C(=N/N=C(N)N)CC(c1ccccc1Cl)C2 (configuration not stated)	82 nM		
Cc1ccccc1C1C/C(=N\N=C(N)N)c2c(C)c[nH]c2C1 (configuration not stated)	34 nM		
N=C(N)N/N=C1\CC(c2ccccc2)Oc2ccccc21 (configuration not stated)	3300 nM	≤ 6400 nM	
Cc1[nH]nc2c1/C(=N/N=C(N)N)CC(c1ccccc1Cl)C2 (configuration not stated)	55 nM		
Cc1ccnc2c1/C(=N/N=C(N)N)CC(c1ccc(Cl)cc1)C2 (configuration not stated)	550 nM	< 50 nM	
Cc1ccnc2oc(-c3ccccc3Cl)c/c(=N\NC(=N)N)c12	360 nM		
Cc1ccnc2c1/C(=N/N=C(N)N)CC(c1ccccc1)C2 (configuration not stated)	91 nM	< 50 nM	
Cc1ccnc2c1/C(=N/N=C(N)N)CC(c1sccc1Cl)C2 (configuration not stated)	19 nM		
Cc1ccc2c(n1)CC(c1ccccc1)C/C2=N\N=C(N)N (configuration not stated)	2800 nM	2800 nM	
Cc1ccnc2c1/C(=N/N=C(N)N)CC(c1ccc(Cl)cc1Cl)C2 (configuration not stated)	340 nM		
Cc1cnnc2c1/C(=N/N=C(N)N)CC(c1ccccc1Cl)C2 (configuration not stated)	26 nM		
N=C(N)N/N=c1\cc(-c2ccccc2)oc2ccccc12	6400 nM	6400 nM	
Cc1ccc(F)cc1C1C/C(=N\N=C(N)N)c2c(C)ccnc2C1 (configuration not stated)	37 nM		
Cc1ccnc2c1/C(=N/N=C(N)N)CC(c1ccccc1Br)C2 (configuration not stated)	56 nM	56 nM	
Cc1csc2c1/C(=N/N=C(N)N)CC(c1ccccc1Cl)C2 (configuration not stated)	220 nM		
Cc1ccccc1C1C/C(=N\N=C(N)N)c2c(C)ccnc2C1 (configuration not stated)	57 nM	57 nM	
Cc1ccnc2c1/C(=N/N=C(N)N)CC(c1ccccc1F)C2 (configuration not stated)	32 nM	32 nM	
Cc1ccnc2c1/C(=N/N=C(N)N)CC(c1cc(F)ccc1Cl)C2 (configuration not stated)	19 nM		19 nM
